The assay has as its system Bacillus cereus. The assay is described as follows: Initial velocity (v) of the hydrolysis catalyzed by Bacillus cereus sphingomyelinase was measured. The format is functional.

Structures are written as SMILES.

`CCCCCCC[C@@H](O)[C@H](COP(=O)([O-])OCC[N+](C)(C)C)NC(=O)CCCCC`: the Velocity was found to be 109.15 µM/min/mg. Compound `CCCCC/C=C/[C@@H](O)[C@H](COP(=O)([O-])OCC[N+](C)(C)C)NC(=O)CCCCC` yielded a Velocity of 136.31 µM/min/mg.

`CCCCCCC[C@H](O)[C@H](COP(=O)([O-])OCC[N+](C)(C)C)NC(=O)CCCCC` gave a Velocity of 5.08 µM/min/mg. Regarding `CCCCC/C=C/[C@H](O)[C@H](COP(=O)([O-])OCC[N+](C)(C)C)NC(=O)CCCCC`, the Velocity stood at 11.17 µM/min/mg.

For the origin of these results see ChEMBL document CHEMBL1151078, “An efficient synthesis of short-chain sphingomyelin analogs and their susceptibility to hydrolysis catalyzed by sphingomyelinase” (1997).
